Here are results for 1 molecule from article PMC8225905, “Activation and detoxification of cassava cyanogenic glucosides by the whitefly Bemisia tabaci” (Scientific Reports, 2021).

The assay concerns T1, BtSUC5.
T1 construct: full-length ORF expressed in Drosophila S2 cells; secreted protein fraction (culture supernatant) assayed
Nature of the assay: LC-MS transglucosidation assay, S2 cell culture supernatant. Particulars: 1 M sucrose as glucosyl donor; phosphate buffer pH 7.0; 25 °C; 30 min; glucosyl acceptor. The assay is classed as biochemical, Bemisia tabaci.

As usually defined, the Km is the substrate concentration at which the rate is half of its maximum. Regarding `CC(C)(C#N)O[C@@H]1O[C@H](CO)[C@@H](O)[C@H](O)[C@H]1O` [linamarin], the Km is approximately 500 µM.
